From patent publication US4256832A, “Carcinogen and mutagen screening method and apparatus” (BioResearch Inc., priority 1978, dated 1981)

Assays:
[1] = tested on: oxidative phosphorylation; details: cited from earlier work; for uncoupling: higher concentrations than 10^-9 M; for stimulation of respiration and ATP production: low concentrations (10^-9 M)
S. typhimurium TA 1530 = details: cited from earlier work
S. typhimurium TA 1535 = assay: Oxygen uptake of S. typhimurium TA 1535 cultures in minimal histidine medium, oxygen electrode (mutagen screening); format: cell-based, Salmonella typhimurium; details: flasks 3 and 4
Text: In the device illustrated in FIG. 1, two conventional oxygen electrodes, 10, 11, of the Clark type are employed. […] Electrode 11, designated the test electrode, measures the respiration rate (O2 uptake) of the same fixed volume 13 and concentration of Ames test bacteria and media as the control electrode. In the second case, the media also contains the chemical to be evaluated. If the chemical is a carcinogen or mutagen, the O2 uptake of test electrode 11 will increase at a faster rate than that of the control. This occurs because the reversion rate, and thus the growth rate and O2 consumption rate will be higher in the test electrode 11 than in the control electrode 10. Conversely, if the chemical is not a carcinogen or a mutagen, the O2 uptake rates will be similar. Thus, by measuring the difference in O2 uptake rates between a control and a test electrode, the potential carcinogenicity and/or mutagenicity of a chemical can be evaluated. […]
The test organism, S. typhimurium TA 1535 is grown overnight, washed three times in phosphate buffer and resuspended to give OD of 0.8 (>10^8 per ml). […] At zero, four, and 32 hours, 1 ml of culture is added to 2 ml of aerated minimal glucose media in the test chamber of an oxygen electrode and the rate of oxygen uptake is measured.

Saccharomyces cerevsiae = details: cited from earlier work

In the case of N[C@@H](Cc1cc(I)c(Oc2cc(I)c(O)c(I)c2)c(I)c1)C(=O)O [thyroxine], the uncoupling [1] is listed as “uncouple at higher concentrations” and the “stimulation of respiration and ATP production” value [1] is listed as “stimulate respiration and ATP production”.
For O=C(O)[C@@H]1CCN1 [L-azetidine carboxylic acid], the “toxicity to mutant form” value (S. typhimurium TA 1530; mutant form of S. typhimurium TA 1530) is given as “not toxic to its mutant form” and the “toxicity to normal form” value (S. typhimurium TA 1530; normal form of S. typhimurium TA 1530) is given as “toxic to the normal form”.
For Nc1c2ccccc2nc2ccccc12 [9-amine acridine], the “oxygen uptake, dependence on mutagen level” value (S. typhimurium TA 1535) was “dependent upon the level of the added known mutagen”.
For NC(N)=NOCC[C@H](N)C(=O)O.O=S(=O)(O)O [cavanine sulfate], the “toxicity to mutant form” value (Saccharomyces cerevsiae; mutant form of yeast) is listed as “not to its mutant form” and the “toxicity to normal form” value (Saccharomyces cerevsiae; normal form of yeast) is listed as “toxic to the normal form”.
In the case of N[C@@H](Cc1cc(I)c(Oc2ccc(O)c(I)c2)c(I)c1)C(=O)O [triiodothyronine], the uncoupling [1] is given as “uncouple at higher concentrations” and the “stimulation of respiration and ATP production” value [1] is given as “stimulate respiration and ATP production”.
